Biological target: T1, GPR119 receptor (Homo sapiens, UniProt Q8TDV5)
T1 construct: expressed in transfected cells
T1 sequence (Q8TDV5 1-335): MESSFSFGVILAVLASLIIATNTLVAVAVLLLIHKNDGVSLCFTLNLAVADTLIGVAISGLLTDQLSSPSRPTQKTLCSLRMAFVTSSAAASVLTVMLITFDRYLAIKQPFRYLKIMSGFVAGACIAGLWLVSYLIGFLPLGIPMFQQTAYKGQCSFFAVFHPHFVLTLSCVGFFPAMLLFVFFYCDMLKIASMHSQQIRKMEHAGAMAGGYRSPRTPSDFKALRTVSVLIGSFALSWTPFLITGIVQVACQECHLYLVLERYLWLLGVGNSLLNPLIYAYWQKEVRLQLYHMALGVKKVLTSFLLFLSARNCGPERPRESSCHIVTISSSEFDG
Experiment: cAMP assay in cells transfected with the GPR119 receptor (human)
Type: cell-based
Details: increase in intracellular cAMP, read-out: h-cAMP EC50
Experimental: The activity of these compounds may be assayed in cells transfected the GPR119 receptor (human, mouse, rat or monkey). Incubation with the above compounds results in an increase in intracellular cAMP, from which an EC50 value may be calculated. Ki values for compounds at this receptor can be determined by employing a radio-labeled agonist. In vivo activity can be determined by conducting an oral glucose-tolerance test in an appropriate species, such as mouse.

| Structure (SMILES) | EC50 [nM] |
| --- | --- |
| CC(C)(C)OC(=O)N1CC2COCC(C1)C2Oc1ncnc2c(-c3ccc(C#N)cc3F)csc12 (stereo not shown) [Example 1] | 8 |
| CC(C)(C)OC(=O)N1CC2COCC(C1)C2Oc1ncnc2c(-c3ccc(S(C)(=O)=O)cc3F)csc12 (stereo not shown) [Example 2] | 62 |
| CC1(OC(=O)N2CC3COCC(C2)C3Oc2ncnc3c(-c4ccc(C#N)cc4F)csc23)CC1 (stereo not shown) [Example 3] | 9 |
| CS(=O)(=O)c1ccc(-c2csc3c(OC4C5COCC4CN(c4ncc(Cl)cn4)C5)ncnc23)c(F)c1 (stereo not shown) [Example 4] | 23 |
| CC(C)(C)OC(=O)N1CC2COCC(C1)C2Oc1ncnc2c(-c3ccc(F)cc3F)csc12 (stereo not shown) [Example 5] | 18 |
| CC1(OC(=O)N2CC3COCC(C2)C3Oc2ncnc3c(-c4ccc(F)cc4F)csc23)CC1 (stereo not shown) [Example 6] | 16 |
| CS(=O)(=O)c1ccc(-c2csc3c(OC4C5COCC4CN(c4ncc(F)cn4)C5)ncnc23)c(F)c1 (stereo not shown) [Example 7] | 47 |
| CCCc1cnc(N2CC3COCC(C2)C3Oc2ncnc3c(-c4ccc(S(C)(=O)=O)cc4F)csc23)nc1 (stereo not shown) [Example 8] | 150 |
| CC(C)(C)OC(=O)N1CC2COCC(C1)C2Oc1ncnc2c(-c3ccc(C#N)cc3Cl)csc12 (stereo not shown) [Example 9] | 47 |
| CC1(OC(=O)N2CC3COCC(C2)C3Oc2ncnc3c(-c4ccc(C#N)cc4Cl)csc23)CC1 (stereo not shown) [Example 10] | 24 |
| N#Cc1ccc(-c2csc3c(OC4C5COCC4CN(c4ncc(Cl)cn4)C5)ncnc23)c(Cl)c1 (stereo not shown) [Example 11] | 18 |
| CC1(OC(=O)N2CC3COCC(C2)C3Oc2ncnc3c(-c4ccc(C(=O)C5CC5)cc4Cl)csc23)CC1 (stereo not shown) [Example 12] | 86 |
| CC1(OC(=O)N2CC3COCC(C2)C3Oc2ncnc3c(-c4ccc(C#N)cc4F)c[nH]c23)CC1 (stereo not shown) [Example 14] | 298 |
| CS(=O)(=O)c1ccc(-c2c[nH]c3c(OC4C5COCC4CN(c4ncc(Cl)cn4)C5)ncnc23)c(F)c1 (stereo not shown) [Example 16] | 247 |
| Cn1cc(-c2ccc(C#N)cc2F)c2ncnc(OC3C4COCC3CN(C(=O)OC3(C)CC3)C4)c21 (stereo not shown) [Example 17] | 13 |
| Cn1cc(-c2ccc(S(C)(=O)=O)cc2F)c2ncnc(OC3C4COCC3CN(c3ncc(Cl)cn3)C4)c21 (stereo not shown) [Example 21] | 5.3 |
| CC1(OC(=O)N2CC3COCC(C2)C3Oc2ncnc3c(-c4ccc(Cl)cc4F)csc23)CC1 (stereo not shown) [Example 22] | 2 |
| COc1ccc(-c2csc3c(OC4C5COCC4CN(c4ncc(Cl)cn4)C5)ncnc23)c(F)c1 (stereo not shown) [Example 28] | 2.1 |
| Cn1cc(-c2ccc(F)cc2F)c2ncnc(OC3C4COCC3CN(C(=O)OC3(C)CC3)C4)c21 (stereo not shown) [Example 31] | 8.4 |
| COc1ccc(-c2cn(C)c3c(OC4C5COCC4CN(C(=O)OC4(C)CC4)C5)ncnc23)c(F)c1 (stereo not shown) [Example 32] | 5.7 |
| Fc1ccc(-c2csc3c(OC4C5COCC4CN(CC(F)(F)C(F)(F)F)C5)ncnc23)c(F)c1 (stereo not shown) [Example 34] | 72 |
| COc1ccc(-c2csc3c(OC4C5COCC4CN(CC(F)(F)C(F)(F)F)C5)ncnc23)c(F)c1 (stereo not shown) [Example 35] | 45 |
| N#Cc1ccc(-c2csc3c(OC4C5COCC4CN(CC(F)(F)C(F)(F)F)C5)ncnc23)c(Cl)c1 (stereo not shown) [Example 36] | 35 |
| N#Cc1ccc(-c2csc3c(OC4C5COCC4CN(CC(F)(F)C(F)(F)F)C5)ncnc23)c(F)c1 (stereo not shown) [Example 37] | 1.6 |
| COC(=O)COc1ccc(-c2csc3c(OC4C5COCC4CN(C(=O)OC4(C)CC4)C5)ncnc23)c(F)c1 (stereo not shown) [Example 46] | 2.5 |
| CC1(OC(=O)N2CC3COCC(C2)C3Oc2ncnc3c(-c4ccc(F)c(CO)c4F)csc23)CC1 (stereo not shown) [Example 48] | 1.4 |
| Cc1c(F)ccc(-c2csc3c(OC4C5COCC4CN(C(=O)OC4(C)CC4)C5)ncnc23)c1F (stereo not shown) [Example 49] | 1.7 |
| CC1(OC(=O)N2CC3COCC(C2)C3Oc2ncnc3c(-c4ccc(S(C)(=O)=O)cc4)csc23)CC1 (stereo not shown) [Example 50] | 2.2 |

These reach a lower EC50. Values come first.

| EC50 [nM] | Structure (SMILES) |
| --- | --- |
| 1.2 | CC1(OC(=O)N2CC3COCC(C2)C3Oc2ncnc3c(-c4ccc(F)cc4C#N)csc23)CC1 (stereo not shown) [Example 24] |
| 1.1 | COc1ccc(-c2csc3c(OC4C5COCC4CN(C(=O)OC4(C)CC4)C5)ncnc23)c(F)c1 (stereo not shown) [Example 23] |
| 1 | CS(=O)(=O)c1ccc(-c2csc3c(OC4C5COCC4CN(CC(F)(F)C(F)(F)F)C5)ncnc23)c(F)c1 (stereo not shown) [Example 33] |
| 1 | Cn1cc(-c2ccc(S(C)(=O)=O)cc2F)c2ncnc(OC3C4COCC3CN(C(=O)OC3(C)CC3)C4)c21 (stereo not shown) [Example 42] |
| 1 | CC1(OC(=O)N2CC3COCC(C2)C3Oc2ncnc3c(-c4ccc(O)cc4F)csc23)CC1 (stereo not shown) [Example 44] |
| 1 | CC1(OC(=O)N2CC3COCC(C2)C3Oc2ncnc3c(-c4ccc(C#N)cc4)csc23)CC1 (stereo not shown) [Example 47] |
| 0.76 | COc1ccc(-c2csc3c(OC4C5COCC4CN(C(=O)OC(C)C)C5)ncnc23)c(F)c1 (stereo not shown) [Example 27] |
| 0.74 | COCc1ccc(-c2csc3c(OC4C5COCC4CN(C(=O)OC4(C)CC4)C5)ncnc23)c(F)c1 (stereo not shown) [Example 30] |
| 0.65 | CC1(OC(=O)N2CC3COCC(C2)C3Oc2ncnc3c(-c4ccc(OCCO)cc4F)csc23)CC1 (stereo not shown) [Example 51] |
| 0.51 | CC1(OC(=O)N2CC3COCC(C2)C3Oc2ncnc3c(-c4ncc(F)cc4F)csc23)CC1 (stereo not shown) [Example 40] |
| 0.5 | CC(C)(O)COc1ccc(-c2csc3c(OC4C5COCC4CN(C(=O)OC4(C)CC4)C5)ncnc23)c(F)c1 (stereo not shown) [Example 52] |
| 0.48 | CC1(OC(=O)N2CC3COCC(C2)C3Oc2ncnc3c(-c4ccc(CO)cc4F)csc23)CC1 (stereo not shown) [Example 29] |
| 0.47 | CC1(OC(=O)N2CC3COCC(C2)C3Oc2ncnc3c(-c4ccc(S(C)(=O)=O)cc4F)csc23)CC1 (stereo not shown) [Example 41] |
| 0.46 | COC(=O)c1ccc(-c2csc3c(OC4C5COCC4CN(C(=O)OC4(C)CC4)C5)ncnc23)c(F)c1 (stereo not shown) [Example 25] |
| 0.44 | COc1ccc(-c2csc3c(OC4C5COCC4CN(C(=O)OC4(C)CC4)C5)ncnc23)c(Cl)c1 (stereo not shown) [Example 38] |
| 0.38 | CCS(=O)(=O)c1ccc(-c2csc3c(OC4C5COCC4CN(C(=O)OC4(C)CC4)C5)ncnc23)cc1 (stereo not shown) [Example 43] |
| 0.36 | Cc1ccc(-c2csc3c(OC4C5COCC4CN(C(=O)OC4(C)CC4)C5)ncnc23)c(F)c1 (stereo not shown) [Example 39] |
| 0.1 | CC1(OC(=O)N2CC3COCC(C2)C3Oc2ncnc3c(-c4ccc(F)cc4Cl)csc23)CC1 (stereo not shown) [Example 45] |

Source: patent US20130096141A1, “BICYCLIC HETEROCYCLE DERIVATIVES AND METHODS OF USE THEREOF” (priority 2010, published 2013)
